Results taken from ChEMBL document CHEMBL4602676, “Discovery and Development of 3-(6-Chloropyridine-3-yloxymethyl)-2-azabicyclo[3.1.0]hexane Hydrochloride (SUVN-911): A Novel, Potent, Selective, and Orally Active Neuronal Nicotinic Acetylcholine α4β2 Receptor Antagonist for the Treatment of Depression” (J Med Chem, 2020).

How the values were obtained:
[1] = target: Neuronal acetylcholine receptor; alpha4/beta2 (Homo sapiens, UniProt P17787+P43681); assay: Displacement of [3H]cytisine from human alpha4beta2 nAChR expressed in CHOK1 cell membrane by microbeta scintillation counting method; type: cell membranes, CHO-K1
Neuronal acetylcholine receptor; alpha4/beta2, sequence (P17787 whole entry): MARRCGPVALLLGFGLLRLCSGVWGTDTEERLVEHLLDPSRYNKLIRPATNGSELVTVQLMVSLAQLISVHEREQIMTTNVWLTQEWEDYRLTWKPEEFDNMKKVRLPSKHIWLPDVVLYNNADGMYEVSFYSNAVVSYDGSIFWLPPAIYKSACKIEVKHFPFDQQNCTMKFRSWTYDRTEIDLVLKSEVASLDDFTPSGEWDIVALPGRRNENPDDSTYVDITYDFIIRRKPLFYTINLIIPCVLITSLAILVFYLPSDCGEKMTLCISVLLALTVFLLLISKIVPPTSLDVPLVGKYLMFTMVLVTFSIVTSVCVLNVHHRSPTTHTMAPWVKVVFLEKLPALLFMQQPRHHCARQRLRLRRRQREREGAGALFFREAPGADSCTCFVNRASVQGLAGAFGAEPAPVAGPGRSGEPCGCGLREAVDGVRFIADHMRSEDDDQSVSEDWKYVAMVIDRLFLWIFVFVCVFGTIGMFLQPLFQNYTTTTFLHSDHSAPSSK
Neuronal acetylcholine receptor; alpha4/beta2, sequence (P43681 whole entry): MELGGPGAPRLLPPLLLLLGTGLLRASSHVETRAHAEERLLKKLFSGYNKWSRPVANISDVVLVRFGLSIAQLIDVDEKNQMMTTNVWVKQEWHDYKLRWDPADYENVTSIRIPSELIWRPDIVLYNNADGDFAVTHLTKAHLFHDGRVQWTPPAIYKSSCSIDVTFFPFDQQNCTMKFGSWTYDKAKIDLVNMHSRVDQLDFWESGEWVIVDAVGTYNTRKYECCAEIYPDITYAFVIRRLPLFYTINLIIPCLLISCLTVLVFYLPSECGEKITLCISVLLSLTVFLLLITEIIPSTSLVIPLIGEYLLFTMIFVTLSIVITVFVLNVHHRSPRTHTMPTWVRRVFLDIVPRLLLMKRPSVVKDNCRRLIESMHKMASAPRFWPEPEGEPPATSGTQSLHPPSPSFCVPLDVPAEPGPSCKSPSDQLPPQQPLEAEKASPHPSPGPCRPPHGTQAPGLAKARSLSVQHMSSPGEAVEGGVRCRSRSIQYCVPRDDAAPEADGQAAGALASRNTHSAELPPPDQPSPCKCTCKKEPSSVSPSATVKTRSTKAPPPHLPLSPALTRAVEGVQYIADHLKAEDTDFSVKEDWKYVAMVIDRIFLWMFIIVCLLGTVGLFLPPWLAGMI

[2] = Half life in Wistar rat at 10 ml/kg, po or 2 ml/kg, iv measured upto 24 hrs by LC-MS/MS analysis; type: ADME, organism-based; conditions: in vivo
[3] = Cmax in Wistar rat at 10 ml/kg, po or 2 ml/kg, iv measured upto 24 hrs by LC-MS/MS analysis; type: ADME, organism-based; conditions: in vivo
[4] = Ratio of drug level in brain to plasma in Wistar rat at 10 ml/kg, po or 2 ml/kg, iv measured upto 24 hrs by LC-MS/MS analysis; type: ADME, organism-based; conditions: brain and plasma, read-out: BPR
[5] = target: Neuronal acetylcholine receptor; alpha3/beta4 (Homo sapiens, UniProt P30926+P32297); assay: Displacement of [3H]epibatidine from human alpha3beta4 nAChR expressed in IMR32 cell membrane by microbeta scintillation counting method; type: cell membranes, IMR-32
Neuronal acetylcholine receptor; alpha3/beta4, sequence (P30926 whole entry): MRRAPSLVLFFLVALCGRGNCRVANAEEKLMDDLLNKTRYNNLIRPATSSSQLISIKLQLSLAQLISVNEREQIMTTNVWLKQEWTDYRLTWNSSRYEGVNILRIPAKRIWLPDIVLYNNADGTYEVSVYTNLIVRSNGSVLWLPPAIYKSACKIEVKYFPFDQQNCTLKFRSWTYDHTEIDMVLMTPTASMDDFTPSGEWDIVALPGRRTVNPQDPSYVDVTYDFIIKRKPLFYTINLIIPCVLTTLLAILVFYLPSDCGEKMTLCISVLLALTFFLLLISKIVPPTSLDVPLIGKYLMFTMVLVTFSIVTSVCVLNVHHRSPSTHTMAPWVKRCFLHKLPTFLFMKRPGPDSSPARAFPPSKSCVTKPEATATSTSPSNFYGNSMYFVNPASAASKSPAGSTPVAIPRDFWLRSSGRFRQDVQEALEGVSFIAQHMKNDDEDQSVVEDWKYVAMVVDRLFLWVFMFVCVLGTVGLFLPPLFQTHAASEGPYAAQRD
Neuronal acetylcholine receptor; alpha3/beta4, sequence (P32297 whole entry): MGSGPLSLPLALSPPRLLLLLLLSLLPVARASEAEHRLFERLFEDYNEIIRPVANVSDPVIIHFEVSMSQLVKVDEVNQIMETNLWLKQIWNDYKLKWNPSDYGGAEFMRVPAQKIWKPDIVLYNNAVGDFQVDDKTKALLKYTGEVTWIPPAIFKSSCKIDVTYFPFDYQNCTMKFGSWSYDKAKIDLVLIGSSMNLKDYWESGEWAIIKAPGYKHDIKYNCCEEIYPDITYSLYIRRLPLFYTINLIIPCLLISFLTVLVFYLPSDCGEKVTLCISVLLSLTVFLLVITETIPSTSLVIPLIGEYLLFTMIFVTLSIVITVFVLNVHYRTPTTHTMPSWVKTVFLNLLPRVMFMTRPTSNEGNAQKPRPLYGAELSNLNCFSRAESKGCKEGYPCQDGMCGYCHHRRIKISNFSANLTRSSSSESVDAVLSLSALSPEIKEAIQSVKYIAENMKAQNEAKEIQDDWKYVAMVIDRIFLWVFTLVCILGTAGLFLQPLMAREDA

Cytochrome P450 3A4 = Cytochrome P450 3A4 (Homo sapiens, UniProt P08684); assay: Inhibition of CYP3A4 in human liver microsomes using midazolam as substrate incubated for 2 min in presence of NADPH by LC-MS/MS analysis; type: ADME
Cytochrome P450 3A4, sequence (P08684 whole entry): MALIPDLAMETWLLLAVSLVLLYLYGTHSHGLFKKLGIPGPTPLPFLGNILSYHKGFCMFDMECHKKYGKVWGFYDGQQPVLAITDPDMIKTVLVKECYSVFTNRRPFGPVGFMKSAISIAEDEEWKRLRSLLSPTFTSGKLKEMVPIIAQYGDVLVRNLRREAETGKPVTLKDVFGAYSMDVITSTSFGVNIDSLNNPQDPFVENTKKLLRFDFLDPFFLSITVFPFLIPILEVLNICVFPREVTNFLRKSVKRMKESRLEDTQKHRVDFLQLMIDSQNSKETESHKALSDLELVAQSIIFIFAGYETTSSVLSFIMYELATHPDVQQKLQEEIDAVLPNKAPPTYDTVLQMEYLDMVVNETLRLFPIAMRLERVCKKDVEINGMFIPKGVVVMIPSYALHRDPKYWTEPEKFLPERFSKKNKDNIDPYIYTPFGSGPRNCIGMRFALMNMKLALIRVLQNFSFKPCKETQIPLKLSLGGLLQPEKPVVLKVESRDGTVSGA

[6] = Metabolic stability in rat liver microsomes assessed as compound metabolism incubated for 30 mins in presence of NADPH by LC-MS/MS analysis; type: ADME, Microsome; conditions: read-out: Drug metabolism
[7] = AUC in Wistar rat at 10 ml/kg, po or 2 ml/kg, iv measured upto 24 hrs by LC-MS/MS analysis; type: ADME, organism-based; conditions: in vivo
Rattus norvegicus [8] = assay: Antidepressant activity in Wistar rat assessed as immobility time at 3.0 mg/kg, po measured for 5 mins by forced swim test (reference value: 241.9 to 281.6 sec); type: functional
[9] = Oral bioavailability in Wistar rat at 10 ml/kg measured upto 24 hrs by LC-MS/MS analysis; type: ADME, organism-based; conditions: in vivo
[10] = Metabolic stability in human liver microsomes assessed as compound metabolism incubated for 30 mins in presence of NADPH by LC-MS/MS analysis; type: ADME, Microsome; conditions: read-out: Drug metabolism
Rattus norvegicus [11] = assay: Antidepressant activity in Wistar rat assessed as immobility time at 10.0 mg/kg, po measured for 5 mins by forced swim test (reference value: 241.9 to 281.6 sec); type: functional
Cytochrome P450 2D6 = Cytochrome P450 2D6 (Homo sapiens, UniProt P10635); assay: Inhibition of CYP2D6 in human liver microsomes using dextromethorphan as substrate incubated for 12 min in presence of NADPH by LC-MS/MS analysis; type: ADME
Cytochrome P450 2D6, sequence (P10635 whole entry): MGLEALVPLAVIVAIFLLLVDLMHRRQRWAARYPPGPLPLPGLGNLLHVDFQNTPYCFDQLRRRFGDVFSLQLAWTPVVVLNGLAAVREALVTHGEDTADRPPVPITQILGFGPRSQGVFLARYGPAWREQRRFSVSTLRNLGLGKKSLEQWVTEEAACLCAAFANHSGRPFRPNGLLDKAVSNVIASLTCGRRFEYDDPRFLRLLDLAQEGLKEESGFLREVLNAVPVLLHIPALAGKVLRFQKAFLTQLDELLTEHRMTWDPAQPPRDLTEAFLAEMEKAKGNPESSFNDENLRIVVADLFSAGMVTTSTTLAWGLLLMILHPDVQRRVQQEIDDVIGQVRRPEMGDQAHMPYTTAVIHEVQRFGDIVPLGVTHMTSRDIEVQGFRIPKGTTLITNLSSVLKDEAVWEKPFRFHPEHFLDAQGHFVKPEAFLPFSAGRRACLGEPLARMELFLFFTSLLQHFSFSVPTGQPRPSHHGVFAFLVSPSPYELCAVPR

Clc1cncc(OCC[C@@H]2C[C@H]3C[C@H]3N2)c1
Ki [1]: 0.395 µM

Clc1ccc(OC[C@H]2NC[C@@H]3C[C@@H]32)cn1
Ki [1]: 0.0002 µM

c1cncc(OC[C@]23C[C@H]2CCN3)c1
Ki [1]: 0.242 µM

CN1[C@H](COc2cccnc2)C[C@H]2C[C@H]21
Ki [1]: 0.0055 µM

CN1[C@H](COc2cncc(Br)c2)C[C@H]2C[C@H]21
Ki [1]: 0.0042 µM

c1ccc2ncc(OC[C@@H]3C[C@H]4C[C@H]4N3)cc2c1
Ki [1]: 0.6 µM

CN1[C@H](COc2cncc(Cl)c2)C[C@H]2C[C@H]21
Ki [1]: 0.00037 µM

FC(F)(F)c1ccc(OC[C@@H]2C[C@H]3C[C@H]3N2)cn1
Ki [1]: 0.768 µM

Clc1cc(OC[C@@H]2C[C@H]3C[C@H]3N2)cnc1Cl
Ki [1]: 0.149 µM

Cc1ccc(OC[C@@H]2C[C@@H]3C[C@@H]3N2)cn1
Ki [1]: 0.00138 µM

Cc1ncccc1OC[C@@H]1C[C@H]2C[C@H]2N1C
Ki [1]: 0.231 µM

Cc1ccc(OC[C@@H]2C[C@H]3C[C@H]3N2C)cn1
Ki [1]: 0.02 µM

c1nnc(-c2cncc(OC[C@@H]3C[C@H]4C[C@H]4N3)c2)o1
Ki [1]: 0.131 µM

COc1ccc(OC[C@@H]2C[C@@H]3C[C@@H]3N2)cn1
Ki [1]: 0.0047 µM

CN1[C@H](COc2cccnc2F)C[C@H]2C[C@H]21
Ki [1]: 0.0319 µM

Clc1cncc(OC[C@@H]2CC[C@H]3C[C@H]3N2)c1
Ki [1]: 0.0313 µM

Clc1ccc(OC[C@]23C[C@H]2CCN3)cn1
Ki [1]: 0.341 µM

Cl.c1cncc(OC[C@@H]2C[C@H]3C[C@H]3N2)c1
half-life [2]: 4.19 h
Cmax [3]: 7.61 µg/mL
Kp at 24 h [4]: 3.8
Ki [5]: > 10 µM
IC50 (Cytochrome P450 3A4): > 45 µM
metabolised at 0.5 h [6]: 17.9%
AUC at 24 h [7]: 10.9 µg·h/mL
Time (Rattus norvegicus [8]): 231 s
bioavailability [9]: 92%
metabolised at 0.5 h [10]: 12.1%
Time (Rattus norvegicus [11]): 210.4 s
Ki [1]: 0.0079 µM
IC50 (Cytochrome P450 2D6): 26.2 µM

Clc1ccc(OCC[C@@H]2C[C@H]3C[C@H]3N2)cn1
Ki [1]: 0.327 µM

Cl.c1cncc(OC[C@@H]2C[C@@H]3C[C@@H]3N2)c1
half-life [2]: 1.08 h
Cmax [3]: 1.5 µg/mL
Kp at 24 h [4]: 3.07
Ki [5]: 0.558 µM
IC50 (Cytochrome P450 3A4): 31.9 µM
metabolised at 0.5 h [6]: 3.9%
AUC at 24 h [7]: 2.71 µg·h/mL
bioavailability [9]: 87%
metabolised at 0.5 h [10]: 2.6%
Ki [1]: 1.34 µM
IC50 (Cytochrome P450 2D6): 30.2 µM

C[C@@]12C[C@@H]1CC(COc1ccc(Cl)nc1)N2 (stereo partly drawn)
Ki [1]: 6.88 µM

OCCCCC#Cc1cncc(OC[C@@H]2C[C@H]3C[C@H]3N2)c1
Ki [1]: 0.0027 µM

c1cnc(OC[C@@H]2C[C@H]3C[C@H]3N2)cn1
Ki [1]: > 10 µM

CN1[C@H](COc2ccc(F)nc2)C[C@H]2C[C@H]21
Ki [1]: 0.0011 µM

Clc1cncc(OC[C@H]2NC[C@@H]3C[C@@H]32)c1
Ki [5]: 0.0082 µM
IC50 (Cytochrome P450 3A4): > 45 µM
metabolised at 0.5 h [6]: 12.1%
metabolised at 0.5 h [10]: 6.04%
Ki [1]: 0.0002 µM
IC50 (Cytochrome P450 2D6): > 45 µM

Clc1ccc(OC[C@@H]2C[C@H]3C[C@H]3N2)nn1
Ki [1]: 4.74 µM

Fc1ncccc1OC[C@@H]1C[C@H]2C[C@H]2N1
Ki [1]: 0.0174 µM

Cl.Clc1ccc(OC[C@@H]2CC[C@H]3C[C@H]3N2)cn1
half-life [2]: 0.68 h
Cmax [3]: 3.34 µg/mL
Kp at 24 h [4]: 0.16
Ki [5]: > 10 µM
IC50 (Cytochrome P450 3A4): > 45 µM
metabolised at 0.5 h [6]: 72.8%
AUC at 24 h [7]: 4.48 µg·h/mL
Time (Rattus norvegicus [8]): 238.6 s
bioavailability [9]: 48%
metabolised at 0.5 h [10]: 98.9%
Time (Rattus norvegicus [11]): 264.9 s
Ki [1]: 0.0205 µM
IC50 (Cytochrome P450 2D6): 79 µM

c1cc(OC[C@@H]2C[C@H]3C[C@H]3N2)ccn1
Ki [1]: > 10 µM

Clc1nccnc1OC[C@@H]1C[C@H]2C[C@H]2N1
Ki [1]: 5.11 µM

Cc1ccc(OC[C@@H]2C[C@H]3C[C@H]3N2)cn1
Ki [1]: 0.0262 µM

Brc1ccc(OC[C@@H]2C[C@H]3C[C@H]3N2)cn1
Ki [1]: 0.0465 µM

c1cncc(OC[C@H]2NC[C@@H]3C[C@@H]32)c1
Ki [5]: 0.0264 µM
IC50 (Cytochrome P450 3A4): 21.1 µM
metabolised at 0.5 h [6]: 6.2%
metabolised at 0.5 h [10]: 6.7%
Ki [1]: 0.00014 µM
IC50 (Cytochrome P450 2D6): > 45 µM

Cl.Clc1cncc(OC[C@@H]2C[C@H]3C[C@H]3N2)c1
half-life [2]: 1.07 h
Cmax [3]: 0.949 µg/mL
Kp at 24 h [4]: 3.79
Ki [5]: > 10 µM
IC50 (Cytochrome P450 3A4): > 45 µM
metabolised at 0.5 h [6]: 40.4%
AUC at 24 h [7]: 1.19 µg·h/mL
Time (Rattus norvegicus [8]): 249.9 s
bioavailability [9]: 50%
metabolised at 0.5 h [10]: 40.7%
Time (Rattus norvegicus [11]): 241.7 s
Ki [1]: 0.00019 µM
IC50 (Cytochrome P450 2D6): > 45 µM

Cl.Clc1ccc(OC[C@@H]2C[C@@H]3C[C@@H]3N2)cn1
half-life [2]: 2.73 h
Cmax [3]: 0.638 µg/mL
Kp at 24 h [4]: 2.14
Ki [5]: 1.02 µM
IC50 (Cytochrome P450 3A4): > 45 µM
metabolised at 0.5 h [6]: 36%
AUC at 24 h [7]: 1.62 µg·h/mL
bioavailability [9]: 66%
metabolised at 0.5 h [10]: 13.6%
Ki [1]: 0.0064 µM
IC50 (Cytochrome P450 2D6): > 45 µM

Cl.Clc1ccc(OC[C@H]2C[C@@H]3C[C@@H]3N2)cn1
half-life [2]: 1.6 h
Cmax [3]: 1.19 µg/mL
Kp at 24 h [4]: 3.83
Ki [5]: 6.01 µM
IC50 (Cytochrome P450 3A4): > 45 µM
metabolised at 0.5 h [6]: 26.2%
AUC at 24 h [7]: 1.77 µg·h/mL
Time (Rattus norvegicus [8]): 256.8 s
bioavailability [9]: 35%
metabolised at 0.5 h [10]: 42.2%
Time (Rattus norvegicus [11]): 279 s
Ki [1]: 0.039 µM
IC50 (Cytochrome P450 2D6): 17.1 µM

C[C@@]12C[C@@H]1CC(COc1cccnc1Cl)N2 (stereo partly drawn)
Ki [1]: > 10 µM

c1ccc(OC[C@@H]2C[C@H]3C[C@H]3N2)nc1
Ki [1]: > 10 µM

C[C@@]12C[C@@H]1CC(COc1cccnc1)N2 (stereo partly drawn)
Ki [1]: 0.0036 µM

Clc1cncc(OC[C@@H]2C[C@@H]3C[C@@H]3N2)c1
Ki [1]: 0.327 µM

CN1[C@H](COc2cccnc2Cl)C[C@H]2C[C@H]21
Ki [1]: 0.0281 µM

Cl.Fc1ccc(OC[C@@H]2C[C@H]3C[C@H]3N2)cn1
half-life [2]: 4.02 h
Cmax [3]: 3.76 µg/mL
Kp at 24 h [4]: 2.38
Ki [5]: > 10 µM
IC50 (Cytochrome P450 3A4): > 45 µM
metabolised at 0.5 h [6]: 5.1%
AUC at 24 h [7]: 15.6 µg·h/mL
Time (Rattus norvegicus [8]): 259.6 s
bioavailability [9]: 96%
metabolised at 0.5 h [10]: 10.7%
Time (Rattus norvegicus [11]): 263.5 s
Ki [1]: 0.0039 µM
IC50 (Cytochrome P450 2D6): > 45 µM

c1cncc(N2CCC3(CCCN3)C2)c1 (stereo not drawn) [TC-2216]
Ki [5]: > 10 µM
Time (Rattus norvegicus [8]): 249.1 s
Time (Rattus norvegicus [11]): 183.9 s
Ki [1]: 0.0186 µM

Cc1nnc(-c2cncc(OC[C@@H]3C[C@H]4C[C@H]4N3)c2)o1
Ki [1]: 0.407 µM

Fc1ccc(OC[C@@H]2C[C@@H]3C[C@@H]3N2)cn1
Ki [1]: 0.0012 µM

C=Cc1nnc(-c2cncc(OC[C@@H]3C[C@H]4C[C@H]4N3)c2)o1
Ki [1]: 2.66 µM

Clc1ncccc1OC[C@@H]1CC[C@H]2C[C@H]2N1
Ki [1]: > 10 µM

CN1[C@H](COc2ccc(Cl)nc2)C[C@H]2C[C@H]21
Ki [1]: 0.0034 µM

Clc1cncc(OC[C@]23C[C@H]2CCN3)c1
Ki [1]: 0.827 µM

Brc1cncc(OC[C@@H]2C[C@H]3C[C@H]3N2)c1
Ki [1]: 0.0064 µM

Cc1ncccc1OC[C@@H]1C[C@H]2C[C@H]2N1.Cl
Time (Rattus norvegicus [8]): 204.8 s
Time (Rattus norvegicus [11]): 198.8 s
Ki [1]: > 10 µM

Clc1ccc(OC[C@H]2C[C@H]3C[C@H]3N2)cn1
Ki [5]: 0.525 µM
IC50 (Cytochrome P450 3A4): > 45 µM
metabolised at 0.5 h [6]: 69.6%
metabolised at 0.5 h [10]: 18.3%
Ki [1]: 0.329 µM
IC50 (Cytochrome P450 2D6): 32.1 µM

CC(=O)N1[C@H](COc2ccc(Cl)nc2)C[C@H]2C[C@H]21
Ki [1]: > 10 µM

Brc1cncc(OC[C@@H]2C[C@@H]3C[C@@H]3N2)c1
Ki [1]: 0.0029 µM

Cc1ncccc1OC[C@@H]1CCCN1 [POZANICLINE]
Ki [5]: > 10 µM

C[C@@]12C[C@@H]1CC(COc1cncc(Cl)c1)N2 (stereo partly drawn)
Ki [1]: 0.577 µM

Cl.c1cncc(OC[C@@H]2CC[C@H]3C[C@H]3N2)c1
half-life [2]: 0.01 h
Cmax [3]: 0.665 µg/mL
Kp at 24 h [4]: 0.32
Ki [5]: 0.0684 µM
IC50 (Cytochrome P450 3A4): > 45 µM
metabolised at 0.5 h [6]: 17%
metabolised at 0.5 h [10]: 53.1%
Ki [1]: 0.0114 µM
IC50 (Cytochrome P450 2D6): > 45 µM

Clc1ncccc1OC[C@@H]1C[C@@H]2C[C@@H]2N1
Ki [1]: 0.001 µM

COc1ccc(OC[C@@H]2C[C@H]3C[C@H]3N2)cn1
Ki [1]: > 10 µM

Clc1cc(OC[C@@H]2C[C@H]3C[C@H]3N2)c(Cl)nc1Cl
Ki [1]: 0.265 µM
